Assay results taken from ChEMBL document CHEMBL1201862, “PubChem BioAssay data set” (2004).
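All cell lines were grown in 96-well plates and treated with compound for 48 hours. GI50: concentration for 50% inhibition of growth.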 The source made the active and inactive calls. No stated cut-off is given here; in the data, active = GI50 up to about 1.1 µM and inactive = higher.

Key:
Test in all cases: growth of human tumour cells (NCI), 48 h
SK-MEL-28 = test system: SK-MEL-28
SNB-19 = test system: SNB-19
HOP-92 = test system: HOP-92
MDA-MB-231 = test system: MDA-MB-231
SR = test system: SR
SF-539 = test system: SF-539
HCT-116 = test system: HCT-116
CCRF-CEM = test system: CCRF-CEM
NCI-H522 = test system: NCI-H522
HL-60 = test system: HL-60
MOLT-4 = test system: MOLT-4
U-251 = test system: U-251
HCT-15 = test system: HCT-15
KM12 = test system: KM12
TK-10 = test system: TK-10
SN12C = test system: SN12C
OVCAR-5 = test system: OVCAR-5
RXF 393 = test system: RXF 393
OVCAR-3 = test system: OVCAR-3
PC-3 = test system: PC-3

Structure (SMILES) | GI50 (SK-MEL-28) | GI50 (SNB-19) | GI50 (HOP-92) | GI50 (MDA-MB-231) | GI50 (SR) | GI50 (SF-539) | GI50 (HCT-116) | GI50 (CCRF-CEM) | GI50 (NCI-H522) | GI50 (HL-60) | GI50 (MOLT-4) | GI50 (U-251) | GI50 (HCT-15) [µM] | GI50 (KM12) | GI50 (TK-10) | GI50 (SN12C) | GI50 (OVCAR-5) | GI50 (RXF 393) | GI50 (OVCAR-3) | GI50 (PC-3)
CC(C)C(O)(C(C)C)C(C)C | > 100 µM (inactive) | > 100 µM (inactive) | > 100 µM (inactive) | > 100 µM (inactive) | > 100 µM (inactive) | > 100 µM (inactive) | > 100 µM (inactive) | > 100 µM (inactive) | > 100 µM (inactive) | > 100 µM (inactive) | > 100 µM (inactive) | > 100 µM (inactive) | > 100 | > 100 µM (inactive) | > 100 µM (inactive) | > 100 µM (inactive) | > 100 µM (inactive) | > 100 µM (inactive) | > 100 µM (inactive) | > 100 µM (inactive)
C/C(=N\O)c1ccc(Nc2c3ccccc3nc3occc23)cc1 | 0.659 µM (active) | 0.603 µM (active) | 12.2 µM (inactive) | 0.9 µM (active) | 0.023 µM (active) | 0.169 µM (active) | 0.185 µM (active) | 0.184 µM (active) | 0.103 µM (active) | 0.154 µM (active) | 0.169 µM (active) | 0.333 µM (active) | 0.126 | 0.231 µM (active) | 1.17 µM (inactive) | 1.44 µM (inactive) | 2.75 µM (inactive) | 0.0352 µM (active) | 0.695 µM (active) | 0.327 µM (active)
CCCCCCCCCCCCCCCCOC[C@H](COC(c1ccccc1)(c1ccccc1)c1ccccc1)O[PH](=S)OC (stereo not given in full) | – | > 100 µM (inactive) | > 100 µM (inactive) | > 100 µM (inactive) | > 100 µM (inactive) | > 100 µM (inactive) | > 100 µM (inactive) | > 100 µM (inactive) | > 100 µM (inactive) | > 100 µM (inactive) | > 100 µM (inactive) | > 100 µM (inactive) | > 100 | > 100 µM (inactive) | > 100 µM (inactive) | > 100 µM (inactive) | > 100 µM (inactive) | > 100 µM (inactive) | > 100 µM (inactive) | > 100 µM (inactive)
CN1c2c(O)nc(N)nc2NCC1CCNc1ccc(C(=O)NC(CCC(=O)O)C(=O)O)cc1 (stereo not given) | 695 µM (inactive) | 1820 µM (inactive) | 1490 µM (inactive) | 1530 µM (inactive) | 25.5 µM (inactive) | 132 µM (inactive) | 28.8 µM (inactive) | 62.5 µM (inactive) | 423 µM (inactive) | 48.1 µM (inactive) | 33 µM (inactive) | 32.4 µM (inactive) | 1430 | 916 µM (inactive) | 1030 µM (inactive) | 540 µM (inactive) | 1520 µM (inactive) | 1010 µM (inactive) | 857 µM (inactive) | 7.16 µM (inactive)
COC1(C)OC[C@@]2(C)OC(C)C1(C)C2O[Si](C(C)C)(C(C)C)C(C)C (stereo not given in full) | 38.4 µM (inactive) | 48.9 µM (inactive) | 24.9 µM (inactive) | 26.4 µM (inactive) | 27.6 µM (inactive) | 33.1 µM (inactive) | 29.2 µM (inactive) | 25.1 µM (inactive) | 27.9 µM (inactive) | 17.5 µM (inactive) | 21.2 µM (inactive) | 28.5 µM (inactive) | 22.4 | 31.8 µM (inactive) | 25.4 µM (inactive) | 23 µM (inactive) | 26.6 µM (inactive) | 27 µM (inactive) | 20.9 µM (inactive) | 31.2 µM (inactive)
O=[N+]([O-])C1(CO)COC2(OC1)c1ccccc1-c1ccccc12 | > 100 µM (inactive) | > 100 µM (inactive) | > 71.1 µM (inactive) | > 100 µM (inactive) | 40.6 µM (inactive) | > 69.3 µM (inactive) | 35.3 µM (inactive) | 25.2 µM (inactive) | 20 µM (inactive) | 21.9 µM (inactive) | 53.2 µM (inactive) | > 77.8 µM (inactive) | 59.4 | > 100 µM (inactive) | > 100 µM (inactive) | 70.1 µM (inactive) | > 100 µM (inactive) | > 55.2 µM (inactive) | > 73.5 µM (inactive) | > 74.8 µM (inactive)
CC(=O)O[C@H]1CC[C@H]2[C@@H]3CCC4=C(C(=O)C=CC4(C)OC(C)=O)[C@H]3CC[C@]12C (stereo not given in full) | > 100 µM (inactive) | > 100 µM (inactive) | 63.2 µM (inactive) | 41 µM (inactive) | 47.3 µM (inactive) | 43.6 µM (inactive) | 33.2 µM (inactive) | 31.6 µM (inactive) | 45.8 µM (inactive) | 27.3 µM (inactive) | 33.9 µM (inactive) | 82.6 µM (inactive) | 64.3 | 29.1 µM (inactive) | > 100 µM (inactive) | 41.5 µM (inactive) | > 100 µM (inactive) | 32.1 µM (inactive) | 47.6 µM (inactive) | 48 µM (inactive)
CC(=O)Nc1ccc(N2C(=O)CS(=O)(=O)C2c2cccc(Oc3ccccc3)c2)cc1 (stereo not given) | 21.9 µM (inactive) | 18 µM (inactive) | 13.8 µM (inactive) | 17.4 µM (inactive) | 20.3 µM (inactive) | 19.5 µM (inactive) | 20.1 µM (inactive) | 53.1 µM (inactive) | 17.2 µM (inactive) | 23.5 µM (inactive) | 29.7 µM (inactive) | 17.7 µM (inactive) | 17.3 | 17.2 µM (inactive) | 20.4 µM (inactive) | 15.1 µM (inactive) | 17.6 µM (inactive) | 18.9 µM (inactive) | 17.5 µM (inactive) | 16.8 µM (inactive)
CCCCc1ccc(Nc2nc(Cl)c3ncn(COCCOC(C)=O)c3n2)cc1 | – | 19.9 µM (inactive) | 2.06 µM (inactive) | 15.3 µM (inactive) | 21.2 µM (inactive) | 19.5 µM (inactive) | 17.6 µM (inactive) | 35.6 µM (inactive) | 13.6 µM (inactive) | 20.9 µM (inactive) | 21.2 µM (inactive) | 18.3 µM (inactive) | 16.7 | 20.4 µM (inactive) | 20.3 µM (inactive) | 21.8 µM (inactive) | 17.9 µM (inactive) | 16.9 µM (inactive) | 20.2 µM (inactive) | 16.8 µM (inactive)
Cc1cccc(C)c1NC(=O)C(=O)C(c1ccccc1Cl)S(=O)(=O)Cc1ccccc1Cl (stereo not given) | > 100 µM (inactive) | 41.5 µM (inactive) | 18.2 µM (inactive) | 31.1 µM (inactive) | > 100 µM (inactive) | 16 µM (inactive) | > 82.2 µM (inactive) | > 100 µM (inactive) | > 100 µM (inactive) | 0.236 µM (active) | > 100 µM (inactive) | 40.6 µM (inactive) | > 100 | > 100 µM (inactive) | > 61.2 µM (inactive) | > 85.5 µM (inactive) | > 100 µM (inactive) | 29.8 µM (inactive) | > 100 µM (inactive) | > 100 µM (inactive)
Cc1ccc2sc3ccc(N)cc3c(=O)c2c1 | > 100 µM (inactive) | > 100 µM (inactive) | 32.9 µM (inactive) | 86.7 µM (inactive) | 68.2 µM (inactive) | 53.2 µM (inactive) | 33.8 µM (inactive) | 40.3 µM (inactive) | 30.3 µM (inactive) | 33.7 µM (inactive) | 11.4 µM (inactive) | 61.2 µM (inactive) | 24.8 | 20.7 µM (inactive) | > 100 µM (inactive) | 81.1 µM (inactive) | > 100 µM (inactive) | 38.5 µM (inactive) | 32 µM (inactive) | 55.1 µM (inactive)
O=[N+]([O-])C[C@@]12O[C@]3(O)C4C5CC(C6C5C3C61)C42 (stereo not given in full) | > 100 µM (inactive) | > 100 µM (inactive) | > 100 µM (inactive) | > 100 µM (inactive) | 80.2 µM (inactive) | > 100 µM (inactive) | > 100 µM (inactive) | > 100 µM (inactive) | > 100 µM (inactive) | > 100 µM (inactive) | > 100 µM (inactive) | > 100 µM (inactive) | > 100 | > 100 µM (inactive) | > 100 µM (inactive) | > 100 µM (inactive) | > 100 µM (inactive) | > 100 µM (inactive) | > 100 µM (inactive) | > 100 µM (inactive)
CN(C)CCCNC(=O)c1c(O)c2ccccc2[nH]c1=O | > 100 µM (inactive) | – | 38.4 µM (inactive) | > 100 µM (inactive) | > 100 µM (inactive) | > 100 µM (inactive) | > 100 µM (inactive) | > 100 µM (inactive) | > 100 µM (inactive) | > 100 µM (inactive) | > 100 µM (inactive) | – | > 100 | > 100 µM (inactive) | > 100 µM (inactive) | > 100 µM (inactive) | > 100 µM (inactive) | 95.7 µM (inactive) | > 100 µM (inactive) | > 100 µM (inactive)
COC1CC2CCC(C)[C@](O)(O2)C(=O)C(=O)N2CCCCC2C(=O)OC(C(C)CC2CCC(O)C(OC)C2)CC(=O)C(C)C=C(C)C(OC(=O)CN(C)C)C(OC)C(=O)C(C)CC(C)/C=C/C=C/C=C\1C (stereo not given in full) | 0.973 µM (active) | < 0.01 µM (active) | < 0.01 µM (active) | 3.67 µM (inactive) | < 0.01 µM (active) | < 0.01 µM (active) | 5.87 µM (inactive) | < 0.01 µM (active) | 3.94 µM (inactive) | 2 µM (inactive) | < 0.01 µM (active) | < 0.01 µM (active) | 10.4 | 9.59 µM (inactive) | 11.6 µM (inactive) | – | 12.6 µM (inactive) | < 0.01 µM (active) | 9.79 µM (inactive) | < 0.01 µM (active)
